Reference: US9624170B2, “4-(piperrazin-1-yl)-pyrrolidin-2-one compounds as monoacylglycerol lipase (MAGL) inhibitors” (TAKEDA PHARMACEUTICAL COMPANY LIMITED, priority 2013, dated 2017)
Counter-ions that a name gives are not always drawn.

target: T1, human MAGL (His-hMAGL) (Homo sapiens, UniProt Q99685); assay: Measurement of MAGL inhibitory activity by mass spectrometry; assay type: biochemical; conditions: 10 μM test compound; substrate 2-arachidonylglycerol, arachidonic acid by RapidFire-mass spectrometry
T1 construct: made in house; host or cells: Escherichia coli BL21(DE3)
T1 sequence (Q99685 1-303): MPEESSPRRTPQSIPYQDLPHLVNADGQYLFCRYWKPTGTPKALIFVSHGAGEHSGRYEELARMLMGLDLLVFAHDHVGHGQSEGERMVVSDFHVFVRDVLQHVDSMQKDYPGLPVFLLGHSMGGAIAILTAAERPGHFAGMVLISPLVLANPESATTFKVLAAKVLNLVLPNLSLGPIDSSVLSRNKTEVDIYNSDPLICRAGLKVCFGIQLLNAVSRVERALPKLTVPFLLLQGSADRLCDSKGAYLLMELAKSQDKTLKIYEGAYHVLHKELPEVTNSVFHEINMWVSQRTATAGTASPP
Method in brief: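 His-tagged human MAGL was reacted with 150 μM 2-arachidonylglycerol substrate (stock, added by 5 μL) for 10 min at room temperature, then stopped with formic acid. Arachidonic acid product was quantified by RapidFire–triple-quadrupole MS in negative SRM mode, corrected by arachidonic acid-d8, and converted to percent inhibition.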

Row | Structure (SMILES) | inhibition at 10 µM [%]
1 | O=C(c1nccs1)N1CCN(C2CC(=O)N(c3ccc4c(ccn4-c4cc(C(F)(F)F)ccn4)c3)C2)CC1 (stereo not shown) [Example 108, 4-(4-(1,3-thiazol-2-ylcarbonyl)piperazin-1-yl)-1-(1-(4-(trifluoromethyl)pyridin-2-yl)-1H-indol-5-yl)pyrrolidin-2-one] | 97
2 | O=C(c1ncco1)N1CCN(C2CC(=O)N(c3cccc(-c4ccccc4Cl)c3)C2)CC1 (stereo not shown) [Example 166, 1-(2′-chlorobiphenyl-3-yl)-4-(4-(1,3-oxazol-2-ylcarbonyl)piperazin-1-yl)pyrrolidin-2-one] | 99
3 | CNS(=O)(=O)c1ccc(-c2cccc(N3CC(N4CCN(C(=O)c5nccs5)CC4)CC3=O)c2)cc1 (stereo not shown) [Example 112, N-methyl-3′-(2-oxo-4-(4-(1,3-thiazol-2-ylcarbonyl)piperazin-1-yl)pyrrolidin-1-yl)biphenyl-4-sulfonamide] | 6

The next lines start with the values.

Row | inhibition at 10 µM [%] | Structure (SMILES)
4 | 102 | Cc1cccc(-c2cccc(N3CC(N4CCN(C(=O)c5nccs5)CC4)CC3=O)c2)c1 (stereo not shown) [Example 91, 1-(3′-methylbiphenyl-3-yl)-4-(4-(1,3-thiazol-2-ylcarbonyl)piperazin-1-yl)pyrrolidin-2-one]
5 | 98 | O=C(c1nccs1)N1CCN(C2CC(=O)N(c3ccc(F)c(Br)c3)C2)CC1 (stereo not shown) [Example 170, 1-(3-bromo-4-fluorophenyl)-4-(4-(1,3-thiazol-2-ylcarbonyl)piperazin-1-yl)pyrrolidin-2-one]
6 | 99 | O=C(c1nccs1)N1CCN(C2CC(=O)N(c3cccc(-c4ccoc4)c3)C2)CC1 (stereo not shown) [Example 96, 1-(3-(3-furyl)phenyl)-4-(4-(1,3-thiazol-2-ylcarbonyl)piperazin-1-yl)pyrrolidin-2-one]

same assay, conditions: MAGL inhibitory rate, test compound 10 μM, His-hMAGL, substrate 2-arachidonylglycerol, RapidFire-mass spectrometry

Row | Structure (SMILES) | inhibition at 10 µM [%]
7 | O=C(c1nccs1)N1CCN(C2CC(=O)N(c3cccc(-c4ccc(F)cc4F)c3)C2)CC1 (stereo not shown) [Example 296, 1-(2′,4′-difluorobiphenyl-3-yl)-4-(4-(1,3-thiazol-2-ylcarbonyl)piperazin-1-yl)pyrrolidin-2-one] | 102
8 | O=C(c1nccs1)N1CCN(C2CC(=O)N(c3cccc(-c4cccn5ccnc45)c3)C2)CC1 (stereo not shown) [Example 342, 1-(3-(imidazo[1,2-a]pyridin-8-yl)phenyl)-4-(4-(1,3-thiazol-2-ylcarbonyl)piperazin-1-yl)pyrrolidin-2-one] | 100
9 | O=C(c1cscn1)N1CCN([C@@H]2CC(=O)N(c3ccc4c(c3)CCN4c3ccc(C(F)(F)F)cn3)C2)CC1 [Example 420, (4R)-4-(4-(1,3-Thiazol-4-ylcarbonyl)piperazin-1-yl)-1-(1-(5-(trifluoromethyl)pyridin-2-yl)-2,3-dihydro-1H-indol-5-yl)pyrrolidin-2-one] | 89
10 | O=C(c1nccs1)N1CCN(C2CC(=O)N(c3ccc(-c4ccccc4Cl)cc3)C2)CC1 (stereo not shown) [Example 188, 1-(2′-chlorobiphenyl-4-yl)-4-(4-(1,3-thiazol-2-ylcarbonyl)piperazin-1-yl)pyrrolidin-2-one] | 99
11 | Cc1cc(-n2ccc3cc(N4CC(N5CCN(C(=O)c6nccs6)CC5)CC4=O)ccc32)ccn1 (stereo not shown) [Example 255, 1-(1-(2-methylpyridin-4-yl)-1H-indol-5-yl)-4-(4-(1,3-thiazol-2-ylcarbonyl)piperazin-1-yl)pyrrolidin-2-one] | 101
12 | CC(C)(C)CC(=O)N1CCc2cc(N3CC(N4CCN(C(=O)c5nccs5)CC4)CC3=O)ccc21 (stereo not shown) [Example 382, 1-(1-(3,3-Dimethylbutanoyl)-2,3-dihydro-1H-indol-5-yl)-4-(4-(1,3-thiazol-2-ylcarbonyl)piperazin-1-yl)pyrrolidin-2-one] | 99
13 | O=C(c1nccs1)N1CCN(C2CC(=O)N(c3cccc(-c4cccnc4Cl)c3)C2)CC1 (stereo not shown) [Example 199, 1-(3-(2-chloropyridin-3-yl)phenyl)-4-(4-(1,3-thiazol-2-ylcarbonyl)piperazin-1-yl)pyrrolidin-2-one] | 101
14 | Cc1ccc(-c2ccc(N3CC(N4CCN(C(=O)c5nccs5)CC4)CC3=O)cc2)cc1 (stereo not shown) [Example 219, 1-(4′-methylbiphenyl-4-yl)-4-(4-(1,3-thiazol-2-ylcarbonyl)piperazin-1-yl)pyrrolidin-2-one] | 102
15 | O=C(c1nccs1)N1CCN([C@@H]2CC(=O)N(c3ccc4c(ccn4-c4ccc(C(F)(F)F)nn4)c3)C2)CC1 [Example 234, (4R)-4-(4-(1,3-thiazol-2-ylcarbonyl)piperazin-1-yl)-1-(1-(6-(trifluoromethyl)pyridazin-3-yl)-1H-indol-5-yl)pyrrolidin-2-one] | 98
16 | O=C(c1cscn1)N1CCN([C@@H]2CC(=O)N(c3ccc4c(ccn4-c4ccc(C(F)(F)F)cn4)c3)C2)CC1 [Example 419, (4R)-4-(4-(1,3-Thiazol-4-ylcarbonyl)piperazin-1-yl)-1-(1-(5-(trifluoromethyl)pyridin-2-yl)-1H-indol-5-yl)pyrrolidin-2-one] | 96

The remaining lines, values ahead:

Row | inhibition at 10 µM [%] | Structure (SMILES)
17 | 102 | Cc1ncccc1-c1cccc(N2CC(N3CCN(c4ncccn4)CC3)CC2=O)c1 (stereo not shown) [Example 256, 1-(3-(2-Methylpyridin-3-yl)phenyl)-4-(4-(pyrimidin-2-yl)piperazin-1-yl)pyrrolidin-2-one]
18 | 101 | COc1ccccc1-c1cc(N2CC(N3CCN(C(=O)c4nccs4)CC3)CC2=O)cc2cc[nH]c12 (stereo not shown) [Example 354, 1-(7-(2-methoxyphenyl)-1H-indol-5-yl)-4-(4-(1,3-thiazol-2-ylcarbonyl)piperazin-1-yl)pyrrolidin-2-one]
19 | 99 | O=C(c1nccs1)N1CCN(C2CC(=O)N(c3cccc(-c4ccnc5sccc45)c3)C2)CC1 (stereo not shown) [Example 346, 4-(4-(1,3-thiazol-2-ylcarbonyl)piperazin-1-yl)-1-(3-(thieno[2,3-b]pyridin-4-yl)phenyl)pyrrolidin-2-one]
20 | 101 | O=C(c1nccs1)N1CCN(C2CC(=O)N(c3cccc(-c4ccccc4OC(F)(F)F)c3)C2)CC1 (stereo not shown) [Example 298, 4-(4-(1,3-thiazol-2-ylcarbonyl)piperazin-1-yl)-1-(2′-(trifluoromethoxy)biphenyl-3-yl)pyrrolidin-2-one]
21 | 103 | O=C(c1cscn1)N1CCN([C@@H]2CC(=O)N(c3ccc4c(c3)CCN4c3ccc(C(F)(F)F)cc3)C2)CC1 [Example 405, (4R)-4-(4-(1,3-Thiazol-4-ylcarbonyl)piperazin-1-yl)-1-(1-(4-(trifluoromethyl)phenyl)-2,3-dihydro-1H-indol-5-yl)pyrrolidin-2-one]
22 | 105 | Cn1ncc2c(-c3cccc(N4CC(N5CCN(C(=O)c6nccs6)CC5)CC4=O)c3)cccc21 (stereo not shown) [Example 326, 1-(3-(1-methyl-1H-indazol-4-yl)phenyl)-4-(4-(1,3-thiazol-2-ylcarbonyl)piperazin-1-yl)pyrrolidin-2-one]
23 | 103 | O=C(c1nccs1)N1CCN(C2CC(=O)N(c3cccc(-c4cccc(C(F)(F)F)c4)c3)C2)CC1 (stereo not shown) [Example 287, 4-(4-(1,3-thiazol-2-ylcarbonyl)piperazin-1-yl)-1-(3′-(trifluoromethyl)biphenyl-3-yl)pyrrolidin-2-one]
24 | 101 | O=C(c1nccs1)N1CCN(C2CC(=O)N(c3ccc(-c4ccccc4C(F)(F)F)cc3)C2)CC1 (stereo not shown) [Example 215, 4-(4-(1,3-thiazol-2-ylcarbonyl)piperazin-1-yl)-1-(2′-(trifluoromethyl)biphenyl-4-yl)pyrrolidin-2-one]
25 | 98 | O=C(c1nccs1)N1CCN(C2CC(=O)N(c3cccc(-c4nc(C(F)(F)F)cs4)c3)C2)CC1 (stereo not shown) [Example 349, 4-(4-(1,3-thiazol-2-ylcarbonyl)piperazin-1-yl)-1-(3-(4-(trifluoromethyl)-1,3-thiazol-2-yl)phenyl)pyrrolidin-2-one]
26 | 99 | O=C(c1nccs1)N1CCN(C2CC(=O)N(c3cccc(-c4cccc5nccn45)c3)C2)CC1 (stereo not shown) [Example 340, 1-(3-(imidazo[1,2-a]pyridin-5-yl)phenyl)-4-(4-(1,3-thiazol-2-ylcarbonyl)piperazin-1-yl)pyrrolidin-2-one]
27 | 94 | O=C(c1nccs1)N1CCN(C2CC(=O)N(c3ccc4c(c3)CCN4C(=O)CC3CCOCC3)C2)CC1 (stereo not shown) [Example 401, 1-(1-(tetrahydro-2H-pyran-4-ylacetyl)-2,3-dihydro-1H-indol-5-yl)-4-(4-(1,3-thiazol-2-ylcarbonyl)piperazin-1-yl)pyrrolidin-2-one]
28 | 96 | O=C(c1nccs1)N1CCN(C2CC(=O)N(c3cc(-c4ccccc4)ccc3F)C2)CC1 (stereo not shown) [Example 241, 1-(4-fluorobiphenyl-3-yl)-4-(4-(1,3-thiazol-2-ylcarbonyl)piperazin-1-yl)pyrrolidin-2-one]
29 | 99 | O=C(c1nccs1)N1CCN([C@@H]2CC(=O)N(c3ccc4c(ccn4-c4ncc(C(F)(F)F)cn4)c3)C2)CC1 [Example 257, (4R)-4-(4-(1,3-Thiazol-2-ylcarbonyl)piperazin-1-yl)-1-(1-(5-(trifluoromethyl)pyrimidin-2-yl)-1H-indol-5-yl)pyrrolidin-2-one hydrochloride]
30 | 98 | O=C(c1nccs1)N1CCN(C2CC(=O)N(c3ccc(F)c(-c4ccccc4Cl)c3)C2)CC1 (stereo not shown) [Example 277, 1-(2′-chloro-6-fluorobiphenyl-3-yl)-4-(4-(1,3-thiazol-2-ylcarbonyl)piperazin-1-yl)pyrrolidin-2-one]
31 | 98 | Cc1cncc(-c2cccc(N3CC(N4CCN(C(=O)c5nccs5)CC4)CC3=O)c2)c1 (stereo not shown) [Example 206, 1-(3-(5-methylpyridin-3-yl)phenyl)-4-(4-(1,3-thiazol-2-ylcarbonyl)piperazin-1-yl)pyrrolidin-2-one]
